Consider twelve molecules from ChEMBL document CHEMBL1145088, “Ascochlorin derivatives as ligands for nuclear hormone receptors” (J Med Chem, 2003).

Structures are written as SMILES.

The first data set concerns the target T1, Nuclear receptor subfamily 1 group I member 2 (Homo sapiens, UniProt O75469).
T1 sequence (O75469 whole entry): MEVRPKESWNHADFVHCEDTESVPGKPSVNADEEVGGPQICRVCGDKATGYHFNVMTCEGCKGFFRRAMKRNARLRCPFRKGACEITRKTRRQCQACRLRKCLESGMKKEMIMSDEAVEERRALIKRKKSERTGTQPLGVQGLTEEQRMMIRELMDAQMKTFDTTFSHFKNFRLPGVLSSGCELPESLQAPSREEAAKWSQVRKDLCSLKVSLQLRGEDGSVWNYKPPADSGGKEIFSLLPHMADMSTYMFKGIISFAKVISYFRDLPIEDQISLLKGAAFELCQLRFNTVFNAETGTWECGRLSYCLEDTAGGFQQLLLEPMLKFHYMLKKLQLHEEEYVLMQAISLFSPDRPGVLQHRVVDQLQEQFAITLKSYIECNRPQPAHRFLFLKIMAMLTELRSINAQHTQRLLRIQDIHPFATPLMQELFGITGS
Briefly: Minimum effective concentration required to activate pregnane X receptor (PXR).
Molecule `CC(=O)Oc1c(Cl)c(C)c(C=O)c(O)c1C/C=C(\C)CC/C=C(\C)[C@@H]1CC(=O)C(C)(C)O1` displayed an MEC of 1 µM.
Still for that read-out and setting: under `C/C(=C\Cc1c(O)c(C=O)c(C)c(Cl)c1OC(=O)CCCC(=O)O)CC/C=C(\C)[C@@H]1CC(=O)C(C)(C)O1` stands 10 µM; under `Cc1c(Cl)c(O)c2c(c1C=O)OC(C)(/C=C/[C@]1(C)C(C)C(=O)CC[C@H]1C)CC2` (stereo partly drawn), 3 µM.
Still for that read-out and setting: under `C/C(=C\Cc1c(O)c(C=O)c(C)c(Cl)c1OCC(=O)O)CC/C=C(\C)[C@@H]1CC(=O)C(C)(C)O1` stands 30 µM.
Same read-out and setting: in the case of `COc1c(C=O)c(C)c(Cl)c(OC(C)=O)c1C/C=C(\C)CC/C=C(\C)[C@@H]1CC(=O)C(C)(C)O1` it was 1 µM; in that of `COc1c(Cl)c(C)c(C=O)c(O)c1C/C=C(\C)CC/C=C(\C)[C@@H]1CC(=O)C(C)(C)O1`, 1 µM; in that of `COc1c(Cl)c(C)c(C(=O)O)c(OC)c1C/C=C(C)/C=C/[C@@]1(C)[C@H](C)CCC(=O)[C@@H]1C`, 1 µM.
Consider `COc1c(Cl)c(C)c(C=O)c(O)c1C/C=C(C)/C=C/[C@@]1(C)[C@H](C)CCC(=O)[C@@H]1C`, for which the MEC is 1 µM.
On the same count and under the same terms, under `Cc1c(C=O)cc2c(c1Cl)OC(C)(/C=C/[C@]1(C)C(C)C(=O)CC[C@H]1C)CC2` (stereo partly drawn) stands 1 µM; under `C/C(=C\Cc1c(O)c(C=O)c(C)c(Cl)c1OC(=O)c1ccncc1)CC/C=C(\C)[C@@H]1CC(=O)C(C)(C)O1`, 10 µM; under `C/C(=C\Cc1c(O)c(Cl)c(C)c(C=O)c1O)CC/C=C(\C)[C@@H]1CC(=O)C(C)(C)O1` [ASCOFURANONE], 3 µM.
The same measure, in the same setting: in the case of `COc1c(Cl)c(C)c(C=O)c(OC)c1CC1OC1(C)/C=C/[C@@]1(C)[C@H](C)CCC(=O)[C@@H]1C` (stereo partly drawn) it was 1 µM.

The next data set deals with U2OS (Homo sapiens). Briefly: Concentration required for inhibition of U2OS cell growth.
For `CC(=O)Oc1c(Cl)c(C)c(C=O)c(O)c1C/C=C(\C)CC/C=C(\C)[C@@H]1CC(=O)C(C)(C)O1`, the IC50 turned out to be 10 µM.
The same measure, in the same setting: under `C/C(=C\Cc1c(O)c(C=O)c(C)c(Cl)c1OC(=O)CCCC(=O)O)CC/C=C(\C)[C@@H]1CC(=O)C(C)(C)O1` stands 3.2 µM; under `Cc1c(Cl)c(O)c2c(c1C=O)OC(C)(/C=C/[C@]1(C)C(C)C(=O)CC[C@H]1C)CC2` (stereo partly drawn), 56 µM.
On the same count and under the same terms, in the case of `C/C(=C\Cc1c(O)c(C=O)c(C)c(Cl)c1OCC(=O)O)CC/C=C(\C)[C@@H]1CC(=O)C(C)(C)O1` it was 32 µM; in that of `COc1c(C=O)c(C)c(Cl)c(OC(C)=O)c1C/C=C(\C)CC/C=C(\C)[C@@H]1CC(=O)C(C)(C)O1`, 10 µM.
Same read-out and setting: in the case of `COc1c(Cl)c(C)c(C=O)c(O)c1C/C=C(\C)CC/C=C(\C)[C@@H]1CC(=O)C(C)(C)O1` it was 5.6 µM; in that of `COc1c(Cl)c(C)c(C(=O)O)c(OC)c1C/C=C(C)/C=C/[C@@]1(C)[C@H](C)CCC(=O)[C@@H]1C`, 56 µM; in that of `COc1c(Cl)c(C)c(C=O)c(O)c1C/C=C(C)/C=C/[C@@]1(C)[C@H](C)CCC(=O)[C@@H]1C`, 1.8 µM.
As to `Cc1c(C=O)cc2c(c1Cl)OC(C)(/C=C/[C@]1(C)C(C)C(=O)CC[C@H]1C)CC2` (stereo partly drawn), the IC50 was found to be 18 µM.
The molecule `C/C(=C\Cc1c(O)c(C=O)c(C)c(Cl)c1OC(=O)c1ccncc1)CC/C=C(\C)[C@@H]1CC(=O)C(C)(C)O1` displayed an IC50 of 10 µM.
`C/C(=C\Cc1c(O)c(Cl)c(C)c(C=O)c1O)CC/C=C(\C)[C@@H]1CC(=O)C(C)(C)O1` [ASCOFURANONE] had a half-inhibitory concentration (IC50) of 3.2 µM.
For `COc1c(Cl)c(C)c(C=O)c(OC)c1CC1OC1(C)/C=C/[C@@]1(C)[C@H](C)CCC(=O)[C@@H]1C` (stereo partly drawn), the IC50 came out at 10 µM.

The next data set deals with T2, Estrogen receptor (Homo sapiens, UniProt P03372).
T2 sequence (P03372 whole entry): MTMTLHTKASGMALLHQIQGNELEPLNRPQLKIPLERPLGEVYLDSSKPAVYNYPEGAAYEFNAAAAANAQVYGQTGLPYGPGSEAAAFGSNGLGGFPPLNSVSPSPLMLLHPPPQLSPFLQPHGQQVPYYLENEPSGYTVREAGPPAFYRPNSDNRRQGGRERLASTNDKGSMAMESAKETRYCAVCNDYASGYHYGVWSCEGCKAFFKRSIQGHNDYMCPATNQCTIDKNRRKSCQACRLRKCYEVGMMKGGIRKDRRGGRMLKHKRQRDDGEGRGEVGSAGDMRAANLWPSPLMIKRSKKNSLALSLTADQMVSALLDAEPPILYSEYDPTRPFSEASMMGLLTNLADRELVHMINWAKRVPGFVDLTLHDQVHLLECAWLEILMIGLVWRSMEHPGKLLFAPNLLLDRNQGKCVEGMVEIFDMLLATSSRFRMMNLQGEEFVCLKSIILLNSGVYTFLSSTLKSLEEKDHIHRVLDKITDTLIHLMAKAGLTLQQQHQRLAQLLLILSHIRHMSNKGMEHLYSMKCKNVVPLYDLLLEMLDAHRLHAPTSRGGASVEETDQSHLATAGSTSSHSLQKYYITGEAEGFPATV
Briefly: Minimum effective concentration required to activate Estrogen receptor 1 (ER alpha); Not detected.
On to `CC(=O)Oc1c(Cl)c(C)c(C=O)c(O)c1C/C=C(\C)CC/C=C(\C)[C@@H]1CC(=O)C(C)(C)O1`, for which the MEC entry is recorded as “Not Active”.
On the same count and under the same terms, in the case of `C/C(=C\Cc1c(O)c(C=O)c(C)c(Cl)c1OC(=O)CCCC(=O)O)CC/C=C(\C)[C@@H]1CC(=O)C(C)(C)O1` it was “Not Active”.
Same read-out and setting: in the case of `Cc1c(Cl)c(O)c2c(c1C=O)OC(C)(/C=C/[C@]1(C)C(C)C(=O)CC[C@H]1C)CC2` (stereo partly drawn) it was “Not Active”; in that of `C/C(=C\Cc1c(O)c(C=O)c(C)c(Cl)c1OCC(=O)O)CC/C=C(\C)[C@@H]1CC(=O)C(C)(C)O1`, “Not Active”; in that of `COc1c(C=O)c(C)c(Cl)c(OC(C)=O)c1C/C=C(\C)CC/C=C(\C)[C@@H]1CC(=O)C(C)(C)O1`, “Not Active”.
Take `COc1c(Cl)c(C)c(C=O)c(O)c1C/C=C(\C)CC/C=C(\C)[C@@H]1CC(=O)C(C)(C)O1`: the MEC result is on record as “Not Active”.
On the same count and under the same terms, under `COc1c(Cl)c(C)c(C(=O)O)c(OC)c1C/C=C(C)/C=C/[C@@]1(C)[C@H](C)CCC(=O)[C@@H]1C` stands “Not Active”.
Turning to `COc1c(Cl)c(C)c(C=O)c(O)c1C/C=C(C)/C=C/[C@@]1(C)[C@H](C)CCC(=O)[C@@H]1C`, the MEC entry is given as “Not Active”.
The same measure, in the same setting: under `Cc1c(C=O)cc2c(c1Cl)OC(C)(/C=C/[C@]1(C)C(C)C(=O)CC[C@H]1C)CC2` (stereo partly drawn) stands “Not Active”; under `C/C(=C\Cc1c(O)c(C=O)c(C)c(Cl)c1OC(=O)c1ccncc1)CC/C=C(\C)[C@@H]1CC(=O)C(C)(C)O1`, “Not Active”.
On the same count and under the same terms, in the case of `C/C(=C\Cc1c(O)c(Cl)c(C)c(C=O)c1O)CC/C=C(\C)[C@@H]1CC(=O)C(C)(C)O1` [ASCOFURANONE] it was “Not Active”; in that of `COc1c(Cl)c(C)c(C=O)c(OC)c1CC1OC1(C)/C=C/[C@@]1(C)[C@H](C)CCC(=O)[C@@H]1C` (stereo partly drawn), “Not Active”.

A further data set deals with Estrogen receptor beta (Homo sapiens, UniProt Q92731). Briefly: Minimum effective concentration required to activate Estrogen receptor 2 (ER beta); Not detected.
Estrogen receptor beta, sequence (Q92731 whole entry): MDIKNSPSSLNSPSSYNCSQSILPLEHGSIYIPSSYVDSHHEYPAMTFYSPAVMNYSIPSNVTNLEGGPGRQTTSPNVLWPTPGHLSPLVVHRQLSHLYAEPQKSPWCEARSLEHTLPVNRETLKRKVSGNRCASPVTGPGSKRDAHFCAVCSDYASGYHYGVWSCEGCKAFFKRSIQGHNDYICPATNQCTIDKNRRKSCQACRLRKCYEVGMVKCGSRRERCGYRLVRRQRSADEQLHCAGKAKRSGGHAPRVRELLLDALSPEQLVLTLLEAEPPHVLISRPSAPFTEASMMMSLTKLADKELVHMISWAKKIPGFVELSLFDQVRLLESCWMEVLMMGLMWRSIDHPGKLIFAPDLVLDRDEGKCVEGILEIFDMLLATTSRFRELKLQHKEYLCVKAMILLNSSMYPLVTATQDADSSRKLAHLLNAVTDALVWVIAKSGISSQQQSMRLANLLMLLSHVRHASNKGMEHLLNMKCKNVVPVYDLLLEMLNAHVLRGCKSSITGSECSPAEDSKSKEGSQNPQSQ
Take `CC(=O)Oc1c(Cl)c(C)c(C=O)c(O)c1C/C=C(\C)CC/C=C(\C)[C@@H]1CC(=O)C(C)(C)O1`: the MEC entry was “Not Active”.
On the same count and under the same terms, under `C/C(=C\Cc1c(O)c(C=O)c(C)c(Cl)c1OC(=O)CCCC(=O)O)CC/C=C(\C)[C@@H]1CC(=O)C(C)(C)O1` stands “Not Active”; under `Cc1c(Cl)c(O)c2c(c1C=O)OC(C)(/C=C/[C@]1(C)C(C)C(=O)CC[C@H]1C)CC2` (stereo partly drawn), “Not Active”; under `C/C(=C\Cc1c(O)c(C=O)c(C)c(Cl)c1OCC(=O)O)CC/C=C(\C)[C@@H]1CC(=O)C(C)(C)O1`, “Not Active”.
For the molecule `COc1c(C=O)c(C)c(Cl)c(OC(C)=O)c1C/C=C(\C)CC/C=C(\C)[C@@H]1CC(=O)C(C)(C)O1`, the MEC entry was “Not Active”.
For `COc1c(Cl)c(C)c(C=O)c(O)c1C/C=C(\C)CC/C=C(\C)[C@@H]1CC(=O)C(C)(C)O1`, the MEC entry is “Not Active”.
The same measure, in the same setting: under `COc1c(Cl)c(C)c(C(=O)O)c(OC)c1C/C=C(C)/C=C/[C@@]1(C)[C@H](C)CCC(=O)[C@@H]1C` stands “Not Active”; under `COc1c(Cl)c(C)c(C=O)c(O)c1C/C=C(C)/C=C/[C@@]1(C)[C@H](C)CCC(=O)[C@@H]1C`, “Not Active”.
On the same count and under the same terms, in the case of `Cc1c(C=O)cc2c(c1Cl)OC(C)(/C=C/[C@]1(C)C(C)C(=O)CC[C@H]1C)CC2` (stereo partly drawn) it was “Not Active”; in that of `C/C(=C\Cc1c(O)c(C=O)c(C)c(Cl)c1OC(=O)c1ccncc1)CC/C=C(\C)[C@@H]1CC(=O)C(C)(C)O1`, “Not Active”.
Still for that read-out and setting: under `C/C(=C\Cc1c(O)c(Cl)c(C)c(C=O)c1O)CC/C=C(\C)[C@@H]1CC(=O)C(C)(C)O1` [ASCOFURANONE] stands “Not Active”.
For `COc1c(Cl)c(C)c(C=O)c(OC)c1CC1OC1(C)/C=C/[C@@]1(C)[C@H](C)CCC(=O)[C@@H]1C` (stereo partly drawn), the MEC result is “Not Active”.
